The text below walks through data of patent US20220009894A1, “1,2,3,4-TETRAHYDROQUINOXALINE DERIVATIVE, PREPARATION METHOD THEREFOR AND APPLICATION THEREOF” (Abbisko Therapeutics Co., Ltd., priority 2019, published 2022).

In one test the target is T1, RORγt (Homo sapiens, UniProt P51449).
T1 construct: The plasmid of pFN26A-RORγt-LBD and pG14.35 (Promega, Cat. No. E1370) were co-transfected into HEK 293 cells; expressed in transfected cells; host or cells: HEK 293 cells (Cat. No. GNHu18)
T1 sequence (P51449 269-508 limits assumed): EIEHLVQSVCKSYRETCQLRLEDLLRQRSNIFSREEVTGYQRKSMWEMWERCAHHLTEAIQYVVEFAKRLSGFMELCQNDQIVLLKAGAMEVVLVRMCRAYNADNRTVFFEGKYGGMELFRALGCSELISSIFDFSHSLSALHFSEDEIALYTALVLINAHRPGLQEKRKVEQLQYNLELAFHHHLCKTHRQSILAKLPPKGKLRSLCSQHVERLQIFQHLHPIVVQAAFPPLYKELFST
Description: RORγt cellular reporter gene detection assay.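 As to Cellular Reporter Assay Amax: Ursolic Acid added as 5 µL of 20 µM medium per well.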 It counts as cell-based. Particulars: 24 hrs; for EC50: HEK 293 cells co-transfected with pFN26A-RORγt-LBD and pG14.35, in presence of antagonist Ursolic acid, top concentration 50 μM; for Cellular Reporter Assay Amax: upper activation limit, HEK 293 cells, in presence of antagonist Ursolic acid. How it is done: II. RORγt Cellular Reporter Gene Detection Assay
In this experiment, RORγt Reporter Gene Detection method was used to evaluate the activation and specificity of compounds to RORγt in cells. The plasmid of pFN26A-RORγt-LBD and pG14.35 (Promega, Cat. No. E1370) were co-transfected into HEK 293 cells (Cat. No. GNHu18). The efficacy of compounds was evaluated with the presence of an antagonist Ursolic acid (Selleck, Cat. No. S2370-100 mg). The specific experimental process was as follow: • 1. The plasmids-co-transfected cells were inoculated into a 96-well plate (Corning, Cat. No 3610) in a fresh DMEM medium (Gibco, cat. No. 1773536) containing 10% fetal bovine serum (Gibco, Cat. No. 10099-141) at 30000 cells/40 μL/well; • 2. 5 μL of medium containing 20 μM Ursolic acid was added thereto; • 3. The dose effect was evaluated by a 4-fold dilution of the test compound starting from 50 μM; • 4. 5 μL of medium containing a compound concentration of 10-fold of its final test concentration was added; • 5. After the cells were incubated at 37° C. and 5% CO2 for 24 hrs, 50 μL of detection reagent was added to detect firefly fluorescence using PerkinElmerEnVision, and 50 μL of the second detection reagent was added to detect sea kidney fluorescence; • 6. A four-parameter curve simulated in GraphPad Prism was used to determine the concentration for 50% activation (EC50) and the upper activation limit (Amax) for each compound.
For orientation: A reporter such as luciferase makes a cellular process visible.

A further test concerns the target T2, RORγt-LBD (Homo sapiens, UniProt P51449).
T2 sequence (P51449 269-508 limits assumed): T1 sequence (P51449 269-508 limits assumed)
Description: Time-resolved fluorescence resonance energy-transfer assay (TR-FRET), co-activator peptide recruitment. It counts as biochemical. Also noted: TR-FRET Biochemical Amax: unit not given here. As to conditions: for EC50: His-RORγt-LBD 30 nM, SRC peptide 500 nM, agonistic activity, averages of one or more measurements, read-out: TR-FRET Biochemical EC50/; for TR-FRET Biochemical Amax: upper activation limit, His-RORγt-LBD, SRC peptide. The source says:
I. Time-Resolved Fluorescence Resonance Energy-Transfer Assay (TR-FRET)
This experiment was a screening experiment for RORγt nuclear receptor agonists based on TR-FRET technology. When His-labeled RORγt-LBD receptor binds to receptor agonists, it may increase the recruitment of biotin-labeled co-activator peptides. Europium-His-RORγt-LBD is indirectly labeled by donor (Eu) by binding to Eu-anti-His antibody. Once Eu is activated by an energy source (such as flashlight or laser), the energy will be transferred to the co-activator indirectly labeled by allophycocyanin by binding of allophycocyanin-streptavidin and biotin-labeled co-activator. • 1. 10× buffer (500 mM Tris-HCl, 500 mM KCl, and 10 mM Na-EDTA) was prepared, pH value was adjusted to 7.0. The buffer was stored at 4° C. for later use and was restored to normal temperature before experiment; • 2. The 10× buffer was diluted to 1× with pure water. Final concentration of 0.01% Triton X-100 and 1 mM DTT (dithiothreitol) were added to prepare the assay buffer; • 3. DMSO was used to prepare 1000× compound stock solution. The compound solution was serial-diluted in 5-fold for 7 concentrations from the top concentration of 1000 nM/10000 nM. Then the 10× compound solution was prepared with assay buffer. An amount of 2 μL was aliquoted into the 20 μL system; • 4. 5×RORγt-LBD protein solution was unfreezed, and a solution of 5× concentration was prepared with assay buffer to obtain a final concentration of 30 nM. The whole operation was carried out on ice; • 5. 5×SRC peptide was unfreezed, and a solution of 5× concentration was prepared with assay buffer to obtain a final concentration of 500 nM. The whole operation was carried out on ice; • 6. 4 μL/well of RORγt-LBD receptor was added into the testing wells of 384-well plate, and the same amount of assay buffer was added to the control wells of non-RORγt-LBD group; • 7. 2 μL of compound was added into each well of 384-well plate; • 8. 4 μL of SRC peptide was added into each well of 384-well plate; • 9. 2× Eu-anti-6× His/APC-Streptavidin was diluted with Lance detection buffer to a final concentration of 0.25 nM and 5 nM, respectively, and then 10 μL of 2× Eu-anti-6× His/APC-Streptavidin was added into each well of 384-well plate; • 10. The mixed solution was incubated at 4° C. overnight; • 11. On the morning of the next day, the 384-well plate was incubated at room temperature for 1 hr. Then the corresponding signal values were read with PerkinElmer EnVision at a wavelength of 665/615 […]. The agonistic activity of the corresponding compound was calculated with Graphpad Prism 7.0 software.
(In TR-FRET formats the signal depends on donor and acceptor labels being close together.)

The structures appear in SMILES notation.

Regarding `CCOC(=O)C(=O)N1CCN2c3ccc(/C=C(\C)c4c(F)cccc4Cl)cc3N(S(=O)(=O)c3cccc(C(F)(F)F)c3)C[C@@H]2C1` [Example 57, ethyl (S,E)-2-(8-(2-(2-chloro-6-fluorophenyl)prop-1-en-1-yl)-6-((3-(trifluoromethyl)phenyl)sulfonyl)-1,2,4,4a,5,6-hexahydro-3H-pyrazino[1,2-a]quinoxalin-3-yl)-2-oxoacetate], at RORγt, the EC50 was found to be 304 nM and the “Cellular Reporter Assay Amax” value is given as 3.2. In addition, at RORγt-LBD, the EC50 was found to be 6.54 nM and the “TR-FRET Biochemical Amax” value was 0.89.
As to `O=C(O)CN1CCN2c3ccc(/C=C/c4c(Cl)cccc4C(F)(F)F)cc3N(S(=O)(=O)c3cccc(C(F)(F)F)c3)C[C@H]2C1` [Example 83, (R,E)-2-(8-(2-chloro-6-(trifluoromethyl)styryl)-6-((3-(trifluoromethyl)phenyl)sulfonyl)-1,2,4,4a,5,6-hexahydro-3H-pyrazino[1,2-a]quinoxalin-3-yl)acetic acid], on RORγt, the EC50 was 979 nM and the “Cellular Reporter Assay Amax” value was determined as 7.0. At RORγt-LBD, the EC50 came out at 28.9 nM and the “TR-FRET Biochemical Amax” value was 0.98.
The corresponding values for `O=S(=O)(c1cccc(C(F)(F)F)c1)N1C[C@@H]2CN(C[C@H](O)CO)CCN2c2ccc(-c3cc(F)cc(OC(F)F)c3)cc21` [Example 40, (S)-3-((S)-8-(3-(difluoromethoxy)-5-fluorophenyl)-6-((3-(tri-fluoromethyl)phenyl)sulfonyl)-1,2,4,4a,5,6-hexahydro-3H-pyrazino[1,2-a]quinoxalin-3-yl) propane-1,2-diol] are 733 nM, 2.5, 13 nM and 0.76.
`O=C(O)[C@@H]1CCN2c3ccc(-c4cc(F)cc(OC(F)F)c4)cc3N(S(=O)(=O)c3cccc(C(F)(F)F)c3)C[C@@H]2C1` [Example 117, (6aS,8R)-3-(3-(difluoromethoxy)-5-fluorophenyl)-5-((3-(trifluoro-methyl)phenyl)sulfonyl)-6,6a,7,8,9,10-hexahydro-5H-pyri-do[1,2-a]quinoxaline-8-car-boxylic acid]: the EC50 on RORγt turned out to be 627 nM; on RORγt-LBD, 148 nM.
On to `CCOC(=O)CN1CCN2c3ccc(/C=C(\C)c4c(F)cccc4Cl)cc3N(S(=O)(=O)c3cccc(C(F)(F)F)c3)C[C@@H]2C1` [Example 43, ethyl (S,E)-2-(8-(2-(2-chloro-6-fluorophenyl)prop-1-en-1-yl)-6-((3-(trifluoromethyl)phenyl)sulfonyl)-1,2,4,4a,5,6-hexahydro-3H-pyrazino[1,2-a]quinoxalin-3-yl)acetate], for which, on RORγt, the EC50 worked out at 162 nM and the “Cellular Reporter Assay Amax” value came to 3.0. Also, on RORγt-LBD, the EC50 was found to be 17.2 nM and the “TR-FRET Biochemical Amax” value is listed as 0.87.
As for `NS(=O)(=O)N1CCN2c3ccc(-c4cc(F)cc(OC(F)F)c4)cc3N(S(=O)(=O)c3cccc(C(F)(F)F)c3)C[C@@H]2C1` [Example 67, (R)-8-(3-(difluoromethoxy)-5-fluoro-phenyl)-6-((3-(trifluorometh-yl)phenyl)sulfonyl)-1,2,4,4a,5,6-hexahydro-3H-pyrazino[1,2-a]quinoxaline-3-sulfonamide], at RORγt, the EC50 turned out to be 158 nM and the “Cellular Reporter Assay Amax” value was found to be 3.3. Besides, on RORγt-LBD, the EC50 is 19.7 nM and the “TR-FRET Biochemical Amax” value is 0.87.
For `COC(=O)C(C)N1CCN2c3ccc(C4=CC(C)(C)OC(C)(C)C4)cc3N(S(=O)(=O)c3cccc(C(F)(F)F)c3)C[C@@H]2C1` (stereo partly drawn) [Example 24, methyl 2-((S)-8-(2,2,6,6-tetramethyl-3,6-dihydro-2H-pyran-4-yl)-6-((3-(trifluoro-methyl)phenyl)sulfonyl)-1,2,4,4a,5,6-hexahydro-3H-pyrazino[1,2-a]qui-noxalin-3-yl)propanoate], in that order: 48.5 nM, 2.4, 31.5 nM and 0.92.
